For one series, the system named is Homo sapiens. Kind of series: Toxicity in critically ill patient with ventilator-associated pneumoniae assessed as adverse effects at […] administered as 3 hr infusion every 8 hrs by HPLC. Type of series: organism-based. To be noted: in vivo, iv.
A further series deals with Serum. Kind of series: Serum creatinine level in critically ill patient with ventilator-associated pneumoniae at […] administered as 3 hr infusion every 8 hrs by HPLC. The format is ADME, organism-based. To be noted: human, in vivo, iv.

Take `CO/N=C(\C(=O)N[C@@H]1C(=O)N2C(C(=O)[O-])=C(C[N+]3(C)CCCC3)CS[C@H]12)c1csc(N)n1` [CEFEPIME]: the Activity result in the series with Homo sapiens is reported as “Non-toxic”. In the series on Serum, this compound displayed a serum creatinine of 0.8 mg/dL.

The values are drawn from ChEMBL document CHEMBL1649153, “Population pharmacokinetics of high-dose, prolonged-infusion cefepime in adult critically ill patients with ventilator-associated pneumonia” (Antimicrob Agents Chemother, 2009).
